Format in all cases: in vivo
In assay [1] the test system is Alopecurus myosuroides (ALOMY). Nature of the assay: Pre-emergence herbicidal activity, glasshouse pot test. The following applies: Alopecurus myosuroides, 480 h, rate 500 g/ha, evaluated after 20 days, read-out: Pre-emergence activity, ALOMY (100=total damage to plant; 0=no damage to plant). In a few lines:
(§1)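 Seeds were sown in sterilised standard soil in pots and sprayed one day later with an aqueous dilution of the active ingredient formulated in acetone plus Emulsogen EL/N-methylpyrrolidone/dipropylene glycol monomethyl ether/X-77. Plants grew under optimum greenhouse conditions, and damage was rated visually after 20 days (0 = none, 100 = total).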

The test system of assay [2] is Avena fatua (AVEFA). Described as above. The following applies: Avena fatua, 480 h, rate 500 g/ha, evaluated after 20 days, read-out: Pre-emergence activity, AVEFA (100=total damage to plant; 0=no damage to plant). In a few lines:
as §1

In assay [3] the test system is Digitaria sanguinalis (DIGSA). Described as above. Conditions: Digitaria sanguinalis, 480 h, rate 500 g/ha, evaluated after 20 days, read-out: Pre-emergence activity, DIGSA (100=total damage to plant; 0=no damage to plant). An outline of the steps: as §1
The test system of assay [4] is Echinochloa crus-galli (ECHCG). The assay is described as above. Conditions: Echinochloa crus-galli, 480 h, rate 500 g/ha, evaluated after 20 days, read-out: Pre-emergence activity, ECHCG (100=total damage to plant; 0=no damage to plant). An outline of the steps: as §1
Assay [5] has as its system Lolium perenne (LOLPE). The description is as above. Conditions: Lolium perenne, 480 h, rate 500 g/ha, evaluated after 20 days, read-out: Pre-emergence activity, LOLPE (100=total damage to plant; 0=no damage to plant). An outline of the steps: as §1
For assay [6], the system named is Setaria faberi (SETFA). Described as above. The following applies: Setaria faberi, 480 h, rate 500 g/ha, evaluated after 20 days, read-out: Pre-emergence activity, SETFA (100=total damage to plant; 0=no damage to plant). An outline of the steps:
as §1

Assay [7] deals with Alopecurus myosuroides (ALOMY). Nature of the assay: Post-emergence herbicidal activity, glasshouse pot test. The following applies: Alopecurus myosuroides, evaluated after 14 or 15 days, read-out: Post-emergence activity, ALOMY (100=total damage to plant; 0=no damage to plant); for pest or weed control at 125 g/ha: rate 125 g/ha; for pest or weed control at 500 g/ha: rate 500 g/ha. An outline of the steps: (§2)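 Plants sown in sterilised standard soil, grown 10 days in glasshouse, then sprayed with aqueous dilution of active ingredient formulated in acetone plus Emulsogen EL/N-methylpyrrolidone/dipropylene glycol monomethyl ether/X-77 solution. Damage scored visually 14 or 15 days after spraying, 0 (none) to 100 (total).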

Assay [8] concerns Avena fatua (AVEFA). The description is as above. Conditions: Avena fatua, evaluated after 14 or 15 days, read-out: Post-emergence activity, AVEFA (100=total damage to plant; 0=no damage to plant); for pest or weed control at 125 g/ha: rate 125 g/ha; for pest or weed control at 500 g/ha: rate 500 g/ha. In a few lines: as §2
The test system of assay [9] is Digitaria sanguinalis (DIGSA). Described as above. Conditions: Digitaria sanguinalis, evaluated after 14 or 15 days, read-out: Post-emergence activity, DIGSA (100=total damage to plant; 0=no damage to plant); for pest or weed control at 125 g/ha: rate 125 g/ha; for pest or weed control at 500 g/ha: rate 500 g/ha. An outline of the steps:
as §2

Assay [10] relates to Echinochloa crus-galli (ECHCG). Described as above. Conditions: Echinochloa crus-galli, evaluated after 14 or 15 days, read-out: Post-emergence activity, ECHCG (100=total damage to plant; 0=no damage to plant); for pest or weed control at 125 g/ha: rate 125 g/ha; for pest or weed control at 500 g/ha: rate 500 g/ha. An outline of the steps: as §2
The test system of assay [11] is Lolium perenne (LOLPE). The assay is described as above. Conditions: Lolium perenne, evaluated after 14 or 15 days, read-out: Post-emergence activity, LOLPE (100=total damage to plant; 0=no damage to plant); for pest or weed control at 125 g/ha: rate 125 g/ha; for pest or weed control at 500 g/ha: rate 500 g/ha. An outline of the steps: as §2
Assay [12] relates to Setaria faberi (SETFA). Described as above. The following applies: Setaria faberi, evaluated after 14 or 15 days, read-out: Post-emergence activity, SETFA (100=total damage to plant; 0=no damage to plant); for pest or weed control at 125 g/ha: rate 125 g/ha; for pest or weed control at 500 g/ha: rate 500 g/ha. In a few lines:
as §2

For `CCC[S+]([O-])C(C)CC1CC(=O)C(c2c(C)cc(C)cc2C)=C(O)C1` (stereo not drawn) [Compound T41], the pest or weed control at 500 g/ha in [1] was found to be 90%; in assay [2], 60%; in assay [3], 100%; in assay [4], 80%; in assay [5], 100%; in [6], 80%. Moreover, the pest or weed control at 125 g/ha amounted to 90% in assay [7]; 70% in [8]; 80% in assay [9]; 70% in assay [10]; 80% in [11]; 50% in assay [12].
For the compound `Cc1cc(C)c(C2=C(O)CC(CC(C)SC(C)C)CC2=O)c(C)c1` (stereo not drawn) [Compound T39], the pest or weed control at 500 g/ha worked out at 70% in [1]; 70% in [2]; 90% in assay [3]; 60% in assay [4]; 80% in assay [5]; 70% in assay [6]. Further, the pest or weed control at 125 g/ha is 10% in [7]; 0% in assay [8]; 30% in assay [9]; 20% in assay [10]; 0% in assay [11]; 10% in [12].
With `CCc1cc(C)cc(CC)c1C1=C(OC(=O)Oc2ccccc2)CC2(CCOCC2)CC1=O` [Compound P18], the pest or weed control at 500 g/ha is 100% in assay [1]; 100% in assay [2]; 100% in assay [3]; 80% in assay [4]; 100% in assay [5]; 100% in assay [6]. In addition, the pest or weed control at 125 g/ha was 80% in [7]; 100% in assay [8]; 70% in [9]; 100% in assay [10]; 90% in assay [11]; 50% in [12].
On to `CCc1cc(C)cc(CC)c1C1=C(O)CC2(CCC(OC)CC2)CC1=O` (stereo not drawn) [Compound T68], for which the pest or weed control at 500 g/ha is 90% in [1]; 70% in [2]; 100% in assay [3]; 70% in [4]; 100% in assay [5]; 30% in assay [6]. Besides, the pest or weed control at 125 g/ha in [7] turned out to be 80%; in assay [8], 40%; in assay [9], 30%; in [10], 20%; in [11], 80%; in assay [12], 20%.
In the case of `CCc1cc(C)cc(CC)c1C1=C(O)CC(CC(C)SC(C)C)CC1=O` (stereo not drawn) [Compound T38], the pest or weed control at 500 g/ha in assay [1] is 90%; in assay [2], 70%; in [3] it was 70%; in assay [4] it was 70%; in assay [5] it was 100%; in assay [6] it was 60%. Also, the pest or weed control at 500 g/ha in [7] came to 90%; in [8], 100%; in assay [9], 70%; in assay [10] it was 70%; in assay [11] it was 90%; in [12], 80%.
As to `CCc1cc(C)cc(CC)c1C1=C(O)CC2(CC[S+]([O-])CC2)CC1=O` (stereo not drawn) [Compound T52], the pest or weed control at 500 g/ha in assay [1] came out at 90%; in [2] it was 100%; in assay [3], 70%; in assay [4], 10%; in [5], 100%; in assay [6], 70%. Moreover, the pest or weed control at 125 g/ha in [7] is 60%; in [8], 60%; in [9], 60%; in assay [10], 30%; in assay [11], 40%; in [12], 20%.
Consider `CCc1cc(C)cc(C)c1C1=C(O)CC(CC(C)SC)CC1=O` (stereo not drawn) [Compound T10], for which the pest or weed control at 500 g/ha worked out at 100% in assay [1]; 70% in assay [2]; 100% in assay [3]; 100% in [4]; 100% in assay [5]; 100% in [6]. Also, the pest or weed control at 500 g/ha in [7] turned out to be 100%; in assay [8] it was 100%; in assay [9], 90%; in assay [10], 90%; in assay [11] it was 100%; in assay [12] it was 90%.
Take `CCc1cc(C)cc(CC)c1C1=C(O)CC2(CCS(=O)(=O)CC2)CC1=O` [Compound T53]: the pest or weed control at 500 g/ha in assay [1] came to 60%; in assay [2], 80%; in assay [3], 100%; in assay [4] it was 100%; in assay [5] it was 90%; in [6] it was 30%. Besides, the pest or weed control at 125 g/ha in assay [7] amounted to 80%; in assay [8] it was 80%; in [9], 90%; in assay [10], 100%; in assay [11], 70%; in [12], 60%.
For `Cc1ccc(-c2ccc(Cl)cc2)cc1C1=C(O)CC2(CCOCC2)CC1=O` [Compound T3], the pest or weed control at 500 g/ha in assay [1] was determined as 40%; in [2], 50%; in [3], 100%; in [4], 100%; in assay [5], 60%; in assay [6], 100%. Further, the pest or weed control at 500 g/ha in [7] is 80%; in assay [8], 80%; in assay [9] it was 100%; in assay [10] it was 100%; in assay [11], 80%; in [12] it was 100%.
For `COC1CCC2(CC1)CC(=O)C(c1cc(-c3ccc(Cl)cc3)ccc1C)=C(O)C2` (stereo not drawn) [Compound T69], the pest or weed control at 500 g/ha in [1] is 0%; in assay [2], 30%; in [3] it was 100%; in assay [4] it was 70%; in [5], 60%; in assay [6], 70%. The pest or weed control at 125 g/ha in assay [7] amounted to 20%; in assay [8], 10%; in assay [9] it was 0%; in assay [10] it was 0%; in [11], 50%; in [12], 0%.

Values taken from patent US8084649B2, “Herbicides” (Syngenta Crop Protection, inc., priority 2007, dated 2011).
